This is an account of results in PMC3334838 (Chemistry & biology, 2012).

One data set relates to RAW 264.7 cells. Description: Osteoclast differentiation assay. Type of data set: cell-based, mouse.
For data set [1], the target named is T1, Erk2 (Homo sapiens, UniProt P28482). In words: KINOMEscan displacement assay, Erk2. Type of data set: binding. The settings on record: 10 μM inhibitor.
For data set [2], the target named is T1, Erk2. In words: Erk2 in vitro kinase assay. Type of data set: biochemical.
Data set [3] relates to Rat-2 cells expressing c-Fes-L145P. In words: Soft-agar colony formation, Rat-2 fibroblasts transformed by c-Fes-L145P. Type of data set: cell-based, rodent.
Data set [4] deals with Rat-2 cells expressing c-Fes/v-Fps chimera. In words: Soft-agar colony formation, Rat-2 fibroblasts transformed by c-Fes/v-Fps chimera. The format is cell-based, rodent.
Data set [5] concerns Rat-2 cells transformed by Hck-YF. Description: Soft-agar colony formation, Rat-2 fibroblasts transformed by active Hck. Type of data set: cell-based, rodent.
Data set [6] deals with control Rat-2 cells expressing GFP alone. Description: Growth of control Rat-2 cells in monolayer culture. Type of data set: cell-based, rodent.
In data set [7] the target is Hck-TMYF gatekeeper mutant (Homo sapiens, UniProt P08631, T333M/Y522F). The format is cell-based.
Chain of Hck-TMYF gatekeeper mutant (P08631 22-526 T333M/Y522F limits assumed): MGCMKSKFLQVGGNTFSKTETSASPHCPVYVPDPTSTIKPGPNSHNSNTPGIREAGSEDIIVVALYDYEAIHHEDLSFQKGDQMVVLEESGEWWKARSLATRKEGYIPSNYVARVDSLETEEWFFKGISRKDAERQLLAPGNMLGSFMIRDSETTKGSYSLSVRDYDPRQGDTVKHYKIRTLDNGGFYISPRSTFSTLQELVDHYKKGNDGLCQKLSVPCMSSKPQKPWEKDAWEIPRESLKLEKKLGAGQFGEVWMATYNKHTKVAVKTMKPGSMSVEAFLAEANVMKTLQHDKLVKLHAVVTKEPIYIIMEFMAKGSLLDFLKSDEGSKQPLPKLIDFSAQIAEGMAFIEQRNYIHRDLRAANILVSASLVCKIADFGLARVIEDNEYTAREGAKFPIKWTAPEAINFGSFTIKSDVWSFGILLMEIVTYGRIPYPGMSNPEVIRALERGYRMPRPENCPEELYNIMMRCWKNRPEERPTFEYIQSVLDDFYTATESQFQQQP
The target of the next data set is Hck-YF (Homo sapiens, UniProt P08631, Y522F). In words: Kinase autophosphorylation in transformed Rat-2 cells by immunoblotting, Hck-YF. Type of data set: cell-based.
Chain of Hck-YF (P08631 22-526 Y522F limits assumed): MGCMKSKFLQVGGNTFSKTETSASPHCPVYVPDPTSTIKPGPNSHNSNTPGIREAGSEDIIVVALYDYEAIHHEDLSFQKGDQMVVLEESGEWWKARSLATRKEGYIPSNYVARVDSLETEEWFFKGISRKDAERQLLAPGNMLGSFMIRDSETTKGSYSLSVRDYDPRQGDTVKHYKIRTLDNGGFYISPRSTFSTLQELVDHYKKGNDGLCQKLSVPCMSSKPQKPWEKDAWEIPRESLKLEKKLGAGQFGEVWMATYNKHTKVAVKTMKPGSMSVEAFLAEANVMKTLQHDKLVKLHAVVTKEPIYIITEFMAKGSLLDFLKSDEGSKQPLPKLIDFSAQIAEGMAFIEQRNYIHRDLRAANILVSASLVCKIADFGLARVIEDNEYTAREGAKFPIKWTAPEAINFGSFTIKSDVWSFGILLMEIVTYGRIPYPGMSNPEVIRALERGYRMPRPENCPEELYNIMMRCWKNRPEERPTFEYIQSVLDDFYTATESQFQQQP
Data set [8] has as its system bone marrow-derived macrophages (BMM). Description: Osteoclast differentiation assay. Type of data set: cell-based, mouse. Conditions: M-CSF and RANKL.
[9] abbreviates: Rat2, read-out: inhibition of soft-agar colony formation.

Structures are written as SMILES.

T1 sequence (P28482 whole entry): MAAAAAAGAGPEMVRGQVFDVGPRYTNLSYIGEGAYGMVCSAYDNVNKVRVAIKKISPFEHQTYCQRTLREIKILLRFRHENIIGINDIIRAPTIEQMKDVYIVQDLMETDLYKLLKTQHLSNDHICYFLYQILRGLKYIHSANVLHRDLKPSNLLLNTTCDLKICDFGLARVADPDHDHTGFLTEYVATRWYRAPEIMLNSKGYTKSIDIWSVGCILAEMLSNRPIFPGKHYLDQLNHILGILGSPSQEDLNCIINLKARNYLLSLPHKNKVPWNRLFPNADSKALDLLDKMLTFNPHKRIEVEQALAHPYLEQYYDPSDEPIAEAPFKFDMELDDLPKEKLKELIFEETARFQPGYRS

For `Nc1[nH]nc2nnc(-c3c(-c4ccccc4)nn4ccccc34)cc12` [FR180204], the “effect on osteoclast differentiation” value in the data set on RAW 264.7 cells (RAW 264.7, 1 μM or 10 μM) is “did not influence”.
In general, inhibition refers to the change of the read-out against control, counted positive when it falls. A word on the IC50: it is the point on the concentration scale where inhibition reaches its midpoint. A high value points to weaker potency. Turning to `COc1cc(N2CCC(N3CCN(C)CC3)CC2)ccc1Nc1ncc(Cl)c(Nc2ccccc2S(=O)(=O)C(C)C)n1` [TAE684], at Erk2 [1], the “displacement score for Erk2” value was found to be 0.3. Further, the “potency towards Erk in an in vitro kinase assay” value at Erk2 [2] was “very low potency”. Besides, the inhibition at 0.1 µM in [3] (setting [9]) and in [4] (setting [9]) was above 50% each time. Besides, the soft-agar colony growth entry in data set [3] (c-Fes transformants, 1 μM) is given as “Complete loss”; in data set [5] (Hck transformants, 1 μM), “Complete loss”. Besides, the results for the “concentration giving complete inhibition of soft-agar colony formation” value in data set [3] (c-Fes-L145P) and in [4] (c-Fes/v-Fps) were 600 nM and 400 nM, respectively. Further, the “inhibition of Hck-mediated soft-agar colony formation” value in data set [5] (200 nM) was “only minimal inhibition”. For the same compound, the “growth of control Rat-2 cells in monolayer culture” value in data set [6] (100 nM) is recorded as “only slightly reduced”. For the same compound, the “reduction of growth of control Rat-2 cells expressing GFP alone” value in [6] (1 μM, after 72 hrs) stood at 50%. Besides, the “growth of control Rat-2 cells expressing GFP alone” value in data set [6] (3 μM) is “completely abolished”. The IC50 in data set [7] is 0.685 µM; at Hck-YF, above 10 µM. For the same compound, the “IC50 values for inhibition of osteoclast differentiation (in words)” value in data set [8] was “submicromolar range”. The “inhibition of osteoclast differentiation compared with BMM” value in the data set with RAW 264.7 cells (RAW 264.7, RANKL and VEGF) is listed as “Very similar results”.
